Experimental data: patent publication US12319655B2, “RAF kinase inhibitors and methods of use thereof” (Deciphera Pharmaceuticals, LLC, priority 2021, dated 2025)

Experiments:
[1] = biological target: C-Raf kinase (SEQ. ID NO: 3) (Homo sapiens (Human), UniProt P04049, Y340D/Y341D); assay: Biochemical Assay for C-Raf (2); conditions: Table J, biochemical assay (2); read-out: CRAF (2)
Description: Biochemical Assay for C-Raf (2)
Activity of C-Raf kinase (SEQ. ID NO: 3) was determined spectroscopically using a coupled pyruvate kinase/lactate dehydrogenase assay that continuously monitors the ATP hydrolysis-dependent oxidation of NADH (e.g., Schindler et al., Science, 2000, 289, 1938-1942). Assays were conducted in 384-well plates (25 μL final volume) using 3.84 nM C-Raf (Eurofins), 1.5 units pyruvate kinase, 2.1 units lactate dehydrogenase, 1 mM phosphoenol pyruvate, 0.7 mM NADH, 50 nM MEK (SignalChem), and 1 mM ATP in assay buffer (100 mM Tris, pH 7.5, 15 mM MgCl2, 0.5 mM DTT, 0.1% octyl-glucoside, 0.002% (w/v) BSA, and 0.002% Triton X-100). Inhibition of C-Raf was measured by adding serial diluted test compound (final assay concentration of 1% DMSO). A decrease in absorption at 340 nm was monitored hourly for 4 h at 30° C. on a multi-mode microplate reader (BioTek). The reaction rate was calculated using the 2 to 3 h time frame. The reaction rate at each concentration of compound was converted to percent inhibition using controls (i.e., reaction with no test compound and reaction with a known inhibitor) and IC50 values were calculated by fitting a four-parameter sigmoidal curve to the data using Prism (GraphPad software).

[2] = system: A375 cells; assay: A375 Cell Proliferation Assay (2); format: cell-based; conditions: Homo sapiens, A-375
Description: A375 Cell Proliferation Assay (2)
A375 cells (catalog (#CRL-1619) are obtained from the American Type Culture Collect (ATTC, Manassas, VA). Briefly, cells were grown in DMEM High Glucose supplemented with 10% characterized fetal bovine serum (Invitrogen, Carlsbad, CA) and 1% Penicillin/Streptomycin/L-Glutamine at 37° C., 5% CO2, and 95% humidity. Cells are expanded until reaching 70-95% confluency at which point they are sub-cultured or harvested for assay use. Using the Beckman Coulter Echo 650, a serial dilution of test compound is dispensed into a 384-well black clear bottom plate in triplicate. Six hundred twenty-five cells are added per well in 50 μL complete growth medium in the 384-well plate. Plates are incubated for 67-72 h at 37° C., 5% CO2, and 95% humidity. At the end of the incubation, 10 μL of a 440 μM solution of resazurin (Sigma, St. Louis, MO) in PBS is added to each well of the plate and plates are incubated for an additional 3-6 h at 37° C., 5% CO2, and 95% humidity. Plates are read on a Synergy2 or equivalent reader (Biotek, Winooski VT) using an excitation of 540 nm and an emission of 600 nm. Data is analyzed using Prism software (GraphPad, San Diego, CA) to calculate IC50 values.

[3] = system: WM3629 cells; assay: WM3629 Cell Proliferation Assay (2); format: cell-based
Description: WM3629 Cell Proliferation Assay (2)
WM3629 cells (#WM3629-01-0001) are obtained from Rockland Immunochemicals Inc (Gilbertsville, PA). Briefly, cells were grown in MCDB 153 medium (Sigma, #M7403, St. Louis, MO) supplemented with 20% Leibovitz's L-15 (ThermoFisher #11415-064, Waltham, MA), 2% heat inactivated fetal bovine serum (ThermoFisher, #A3840001, Waltham, MA), 5 μg/mL Insulin (Bovine Pancreas) (Sigma, #I0516, St. Louis, MO), 1.68 mM Calcium Chloride (Sigma, #C-34006, St. Louis, MO) and 1% Penicillin/Streptomycin/L-Glutamine (ThermoFisher #10378016, Waltham, MA) at 37° C., 5% CO2, and 95% humidity. Cells are expanded until reaching 70-95% confluency at which point they are sub-cultured or harvested for assay use. Using the Beckman Coulter Echo 650, a serial dilution of test compound is dispensed into a 384-well black clear bottom plate in triplicate. One thousand one hundred twenty-five cells are added per well in 50 μL complete growth medium in the 384-well plate. Plates are incubated for 67-72 hours at 37° C., 5% CO2, and 95% humidity. At the end of the incubation, 10 μL of a 440 μM solution of resazurin (Sigma, #199303, St. Louis, MO) in PBS is added to each well of the plate and plates are incubated for an additional 3-6 hours at 37° C., 5% CO2, and 95% humidity. Plates are read on a Synergy2 or equivalent reader (Biotek, Winooski VT) using an excitation of 540 nm and an emission of 600 nm. Data is analyzed using Prism software (GraphPad, San Diego, CA) to calculate IC50 values.

[4] = system: Miapaca-2 cells; assay: MiaPaca-2 Cell Proliferation Assay (2); format: cell-based; conditions: Homo sapiens, MIA PaCa-2, single agent
Description: MiaPaca-2 Cell Proliferation Assay (2)
Miapaca-2 cells (catalog #CRL-1420) are obtained from the American Type Culture Collect (ATTC, Manassas, VA). Briefly, cells were grown in DMEM supplemented with 10% characterized fetal bovine serum (Invitrogen, Carlsbad, CA), 2.5% New Zealand sourced horse serum and 1% Penicillin/Streptomycin/L-Glutamine at 37° C., 5% CO2, and 95% humidity. Cells are expanded until reaching 70-95% confluency at which point they are sub-cultured or harvested for assay use. A serial dilution of test compound is dispensed into a 384-well black clear bottom plate in triplicate. Seven hundred fifty cells are added per well in 50 μL complete growth medium in the 384-well plate. Plates are incubated for 67-72 h at 37° C., 5% CO2, and 95% humidity. At the end of the incubation, 10 μL of a 440 μM solution of resazurin (Sigma, St. Louis, MO) in PBS is added to each well of the plate and plates are incubated for an additional 5-6 h at 37° C., 5% CO2, and 95% humidity. Plates are read on a Synergy2 or equivalent reader (Biotek, Winooski VT) using an excitation of 540 nm and an emission of 600 nm. Data is analyzed using Prism software (GraphPad, San Diego, CA) to calculate IC50 values.

Chain of C-Raf kinase (SEQ. ID NO: 3) (P04049 307-648 Y340D/Y341D): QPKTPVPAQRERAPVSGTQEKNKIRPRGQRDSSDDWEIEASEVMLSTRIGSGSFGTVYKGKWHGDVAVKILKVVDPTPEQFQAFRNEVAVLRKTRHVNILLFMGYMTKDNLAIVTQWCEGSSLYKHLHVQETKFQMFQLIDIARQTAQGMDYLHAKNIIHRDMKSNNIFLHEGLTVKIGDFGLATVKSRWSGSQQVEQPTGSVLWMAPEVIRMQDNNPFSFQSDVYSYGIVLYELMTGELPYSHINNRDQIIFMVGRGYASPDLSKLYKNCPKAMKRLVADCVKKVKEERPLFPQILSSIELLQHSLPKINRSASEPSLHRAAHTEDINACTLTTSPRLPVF

Row | IC50 [1] [µM] | IC50 [2] [µM] | IC50 [4] [µM] | SMILES | IC50 [3] [µM]
1 | ≤ 0.1 | ≤ 0.1 | 1 to 10 | CNC(=O)c1cc(-c2cc(-c3cc(NC(=O)c4ccnc(C(C)(C)F)c4)ccc3Cl)ccn2)ccn1 [Example 485] | ≤ 0.1
2 | ≤ 0.1 | 0.1 to 0.5 | 1 to 10 | Cc1ccc(NC(=O)c2ccnc(C(C)(C)F)c2)cc1-c1cnnc(-c2ccnc(C(N)=O)c2)c1 [Example 486] | ≤ 0.1
3 | ≤ 0.1 | ≤ 0.1 | 1 to 10 | CNC(=O)c1cc(-c2cc(-c3cc(NC(=O)c4ccnc(C5(F)CC5)c4)ccc3C)ccn2)ccn1 [Example 487] | ≤ 0.1
4 | ≤ 0.1 | 0.1 to 0.5 | – | Cc1ccc(NC(=O)c2ccnc(C(C)(C)F)c2)cc1-c1cc(-c2ccnc(C(N)=O)c2)ncn1 [Example 488] | ≤ 0.1
5 | ≤ 0.1 | ≤ 0.1 | 1 to 10 | [2H]C([2H])([2H])NC(=O)c1cc(-c2cc(-c3cc(NC(=O)c4ccnc(C(C)(C)F)c4)ccc3C)ccn2)ccn1 [Example 489] | ≤ 0.1
6 | ≤ 0.1 | 0.1 to 0.5 | – | Cc1ccc(NC(=O)c2ccnc(C(C)(C)F)c2)cc1-c1cc(-c2ccnc(C(N)=O)c2)ncc1F [Example 490] | ≤ 0.1
7 | ≤ 0.1 | 1 to 10 | – | CC(C)(F)c1cc(C(=O)Nc2ccc(F)c(-c3ccnc(-c4ccnc(C(N)=O)c4)c3)c2)ccn1 [Example 491] | ≤ 0.1
8 | ≤ 0.1 | 0.1 to 0.5 | – | CNC(=O)c1cc(-c2cc(-c3cc(NC(=O)c4cnnc(C(C)(F)F)c4)ccc3C)ccn2)ccn1 [Example 492] | ≤ 0.1
9 | ≤ 0.1 | ≤ 0.1 | 1 to 10 | [2H]C([2H])([2H])NC(=O)c1cc(-c2cc(-c3cc(NC(=O)c4ccnc(C(C)(C)F)c4)ccc3C)cc(C)n2)ccn1 [Example 493] | ≤ 0.1
10 | ≤ 0.1 | 1 to 10 | 1 to 10 | CNC(=O)c1cc(-c2cc(-c3cc(NC(=O)c4ccnc(C(C)(C)F)n4)ccc3C)ccn2)ccn1 [Example 494] | ≤ 0.1
11 | ≤ 0.1 | ≤ 0.1 | 1 to 10 | CNC(=O)c1cc(-c2cc(-c3cc(NC(=O)c4cnnc(C(C)(C)F)c4)ccc3C)ccn2)ccn1 [Example 495] | ≤ 0.1
12 | ≤ 0.1 | ≤ 0.1 | 1 to 10 | CNC(=O)c1cc(-c2cc(-c3cc(NC(=O)c4ccnc(C5(F)CC5)c4)ccc3C)cc(C)n2)ccn1 [Example 496] | ≤ 0.1
13 | 0.1 to 0.5 | 0.1 to 0.5 | 1 to 10 | CNC(=O)c1cc(-c2cc(-c3cc(NC(=O)c4ccnc(C(C)(C)F)c4)c(F)cc3C)ccn2)ccn1 [Example 497] | ≤ 0.1
14 | 0.1 to 0.5 | 0.1 to 0.5 | 1 to 10 | [2H]C([2H])([2H])NC(=O)c1cc(-c2cc(-c3cc(NC(=O)c4ccnc(C5(F)CC5)c4)ccc3C)cc(C)n2)ccn1 [Example 498] | ≤ 0.1
15 | ≤ 0.1 | ≤ 0.1 | 1 to 10 | CNC(=O)c1cc(-c2cc(-c3cc(NC(=O)c4ccnc(C(C)(C)F)c4)ncc3C)ccn2)ccn1 [Example 499] | ≤ 0.1
16 | ≤ 0.1 | 1 to 10 | 1 to 10 | Cc1ccc(NC(=O)c2cn(C)nc2C(F)(F)F)cc1-c1cncc(-c2ccnc(NC(=O)C3CC3)c2)c1 [Example 500] | ≤ 0.1
17 | ≤ 0.1 | 0.1 to 0.5 | 1 to 10 | Cc1ccc(NC(=O)c2ccc(C(F)(F)F)cc2)cc1-c1ccnc(-c2ccnc(NC(=O)C3CC3)c2)c1 [Example 501] | ≤ 0.1
18 | ≤ 0.1 | ≤ 0.1 | 0.5 to 1 | Cc1ccc(NC(=O)c2cccc(C(F)(F)F)c2)cc1-c1ccnc(-c2ccnc(NC(=O)C3CC3)c2)c1 [Example 502] | ≤ 0.1
19 | ≤ 0.1 | 0.1 to 0.5 | 1 to 10 | Cc1ccc(NC(=O)c2cc(C(F)(F)F)ccc2F)cc1-c1ccnc(-c2ccnc(NC(=O)C3CC3)c2)c1 [Example 503] | ≤ 0.1
